The term pIC50 denotes −log10 of the IC50, conventionally taken in molar units.

Molecules are shown by their SMILES. pIC50: −log10 of the molar value.

In BindingDB's records for doi:10.1016/j.bmc.2006.01.067 (Johnson & Johnson Pharmaceutical, 2006) one finds IC50 data, which are given here for three compounds.

The target of the experiment is T1, Integrin alpha-4/beta-7 (Homo sapiens, UniProt P13612+P26010).
T1 sequence (P13612 whole entry): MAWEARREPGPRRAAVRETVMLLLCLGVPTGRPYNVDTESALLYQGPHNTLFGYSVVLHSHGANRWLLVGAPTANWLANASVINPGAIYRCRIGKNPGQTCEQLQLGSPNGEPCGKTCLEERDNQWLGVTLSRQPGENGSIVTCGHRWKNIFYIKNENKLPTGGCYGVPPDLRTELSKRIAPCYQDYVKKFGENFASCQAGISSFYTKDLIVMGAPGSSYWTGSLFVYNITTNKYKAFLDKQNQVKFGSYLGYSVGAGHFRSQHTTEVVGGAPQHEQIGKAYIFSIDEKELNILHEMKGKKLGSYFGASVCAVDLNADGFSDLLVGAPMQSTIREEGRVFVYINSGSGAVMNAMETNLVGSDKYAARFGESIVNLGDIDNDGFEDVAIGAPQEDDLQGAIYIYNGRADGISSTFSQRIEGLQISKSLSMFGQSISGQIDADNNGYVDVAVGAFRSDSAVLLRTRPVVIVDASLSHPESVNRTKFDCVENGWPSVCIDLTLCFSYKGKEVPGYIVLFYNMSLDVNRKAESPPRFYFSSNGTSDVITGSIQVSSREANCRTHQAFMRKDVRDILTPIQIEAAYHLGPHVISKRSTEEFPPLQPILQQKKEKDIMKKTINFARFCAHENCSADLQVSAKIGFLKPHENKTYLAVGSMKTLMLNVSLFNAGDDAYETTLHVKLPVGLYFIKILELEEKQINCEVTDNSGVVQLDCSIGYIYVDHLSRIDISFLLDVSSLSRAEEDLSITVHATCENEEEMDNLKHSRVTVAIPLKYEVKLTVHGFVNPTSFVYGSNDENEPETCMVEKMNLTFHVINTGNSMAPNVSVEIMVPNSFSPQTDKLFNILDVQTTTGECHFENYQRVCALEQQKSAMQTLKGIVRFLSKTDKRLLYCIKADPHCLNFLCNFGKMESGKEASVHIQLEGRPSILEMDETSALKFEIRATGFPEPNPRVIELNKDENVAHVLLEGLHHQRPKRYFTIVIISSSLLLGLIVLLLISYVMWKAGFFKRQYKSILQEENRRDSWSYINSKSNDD
T1 sequence (P26010 whole entry): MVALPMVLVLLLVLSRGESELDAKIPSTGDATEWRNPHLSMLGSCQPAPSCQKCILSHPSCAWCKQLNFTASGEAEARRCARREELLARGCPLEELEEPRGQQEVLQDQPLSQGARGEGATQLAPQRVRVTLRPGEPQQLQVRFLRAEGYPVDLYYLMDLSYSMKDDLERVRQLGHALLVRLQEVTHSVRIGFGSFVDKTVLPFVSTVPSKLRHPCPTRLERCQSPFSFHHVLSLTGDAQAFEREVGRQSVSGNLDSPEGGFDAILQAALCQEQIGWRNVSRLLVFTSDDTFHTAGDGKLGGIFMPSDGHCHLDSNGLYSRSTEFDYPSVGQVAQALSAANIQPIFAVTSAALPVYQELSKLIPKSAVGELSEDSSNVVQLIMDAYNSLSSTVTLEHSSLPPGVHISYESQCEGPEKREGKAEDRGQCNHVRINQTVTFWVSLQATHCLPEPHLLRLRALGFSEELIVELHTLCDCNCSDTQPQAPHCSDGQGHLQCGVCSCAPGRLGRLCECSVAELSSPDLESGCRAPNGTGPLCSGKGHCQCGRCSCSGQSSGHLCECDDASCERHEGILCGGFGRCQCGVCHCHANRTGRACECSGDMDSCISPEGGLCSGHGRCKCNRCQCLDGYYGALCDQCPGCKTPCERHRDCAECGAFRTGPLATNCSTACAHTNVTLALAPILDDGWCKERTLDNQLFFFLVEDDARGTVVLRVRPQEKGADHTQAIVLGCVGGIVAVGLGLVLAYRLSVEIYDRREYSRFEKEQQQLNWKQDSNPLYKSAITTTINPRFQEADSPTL
Description: K562 Cell Adhesion Assay (alpha4beta7 Mediated Adhesion/MAdCAM-1). Conditions: pH 7.4; 23 °C. The procedure:
M2 anti-FLAG antibody coated 96-well plates were coated with recombinant FLAG-hMAdCAM-1 contained in Dulbecco PBS. The compounds to be tested were added. Stably transfected K562 cells expressing human alpha4beta7 integrin that had been labeled with […] fluorescein diacetate succinimidyl ester (CFDA-SE) were added to each well and allowed to adhere for 1 h at room temperature. Plates were washed, and then cells were lysed. The plate was read on a 96-well fluorescent plate reader at 485 nm excitation and 530 nm emission.
The compound `O=C(O)[C@H](Cc1ccc(N2C(=O)c3ccccc3C2=O)cc1)NC(=O)[C@@H]1C2CCC(CC2)N1S(=O)(=O)c1ccccc1` had a pIC50 of 6.96.
The compound `O=C(Nc1ccc(C[C@H](NC(=O)[C@@H]2C3CCC(CC3)N2S(=O)(=O)c2ccccc2)C(=O)O)cc1)c1ccncc1` [(2S)-2-{[(3S)-2-(benzenesulfonyl)-2-azabicyclo[2.2.2]octan-3-yl]formamido}-3-[4-(pyridine-4-amido)phenyl]propanoic acid] gave a pIC50 of 6.92. This pIC50 and that of the compound before are within 0.2 log units of each other.
As to `O=C(Nc1ccc(C[C@H](NC(=O)[C@@H]2C3CCC(CC3)N2S(=O)(=O)c2ccccc2)C(=O)O)cc1)c1cc(Cl)nc(Cl)c1` [(2S)-2-{[(3S)-2-(benzenesulfonyl)-2-azabicyclo[2.2.2]octan-3-yl]formamido}-3-{4-[(2,6-dichloropyridine-4-)amido]phenyl}propanoic acid], the pIC50 is 7.34.
